{
  "source": "paper PMC9234961",
  "about": "(Journal of Medicinal Chemistry, 2022)",
  "key": {"[1]": {"assay": "Linearity PK studies in SCID mice", "settings": "solution formulation"}, "OCI-Ly3": {"tested_on": "OCI-Ly3", "assay": "Cell proliferation assay (14 days), OCI-Ly3", "protocol": "Cells were seeded in 96-well culture plates at a density of 2500 cells/well in RPMI-1640 medium (Sigma-\nAldrich) supplemented with 10% FBS (Gibco). Compounds were initially dispensed into 96-well U-bottom\nplates using an Echo 550 acoustic dispenser (Labcyte Inc.), then diluted in RPMI-1640 medium and\ntransferred onto the cells. Cells were treated with 8 compound concentrations in duplicate, ranging from\nwith compound for 14 days, with medium changes at days 3, 7 and 10 carried out as follows: fresh 96-well\ncell culture plates were prepared containing 100 µl medium plus compound at the assay concentrations\n(white plates were used on day 10 to optimise luminescence measurement). Assay plates containing cells\nwere vortexed to mix and cell density in one control well was counted using a Coulter Z2 cell counter\n(Beckman Coulter). The volume of medium containing 2500 cells in the control well was calculated and this volume of cells was transferred from every well of the assay plates to the corresponding well of the fresh plates containing compound. After 14 days, CellTiter Glo reagent (Promega) was added to the medium in each well of the assay plate at a ratio of 1:2, mixed on a plate shaker, then incubated at room temperature for 10 minutes. Luminescence was measured using an Envision plate reader (Perkin Elmer) and the relative luminescence at each compound concentration, compared to DMSO alone, was calculated. GI50 were determined using a 4-parameter curve fit in Dotmatics (Bishops Stortford, UK)."}, "CHRM2 [2]": {"biological_target": "T1, CHRM2 (Homo sapiens, UniProt P08172)", "T1 construct": "expressed in transfected cells", "T1 sequence (P08172 1-466)": "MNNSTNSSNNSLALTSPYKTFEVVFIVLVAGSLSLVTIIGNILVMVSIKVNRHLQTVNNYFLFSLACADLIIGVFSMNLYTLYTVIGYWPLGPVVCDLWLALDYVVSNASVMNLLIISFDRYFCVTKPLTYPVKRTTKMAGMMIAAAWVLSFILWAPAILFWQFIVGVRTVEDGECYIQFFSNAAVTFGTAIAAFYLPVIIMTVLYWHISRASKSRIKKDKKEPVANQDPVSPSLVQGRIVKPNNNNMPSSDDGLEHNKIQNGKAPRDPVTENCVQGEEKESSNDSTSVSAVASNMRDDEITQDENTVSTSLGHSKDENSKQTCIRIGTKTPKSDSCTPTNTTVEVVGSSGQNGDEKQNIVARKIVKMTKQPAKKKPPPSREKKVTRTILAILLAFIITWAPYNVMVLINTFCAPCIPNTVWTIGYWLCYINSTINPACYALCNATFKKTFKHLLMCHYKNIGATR", "assay": "SAFETYScan GPCR cAMP, Agonist", "assay_type": "cell-based", "text": "(§1) Supplement jm1c02175_si_002.xlsx, sheet \"SAFETYScan\" | column: RC50 (uM); Max Response"}, "HTR1A": {"biological_target": "T2, HTR1A (Homo sapiens, UniProt P08908)", "T2 construct": "expressed in transfected cells", "T2 sequence (P08908 1-422)": "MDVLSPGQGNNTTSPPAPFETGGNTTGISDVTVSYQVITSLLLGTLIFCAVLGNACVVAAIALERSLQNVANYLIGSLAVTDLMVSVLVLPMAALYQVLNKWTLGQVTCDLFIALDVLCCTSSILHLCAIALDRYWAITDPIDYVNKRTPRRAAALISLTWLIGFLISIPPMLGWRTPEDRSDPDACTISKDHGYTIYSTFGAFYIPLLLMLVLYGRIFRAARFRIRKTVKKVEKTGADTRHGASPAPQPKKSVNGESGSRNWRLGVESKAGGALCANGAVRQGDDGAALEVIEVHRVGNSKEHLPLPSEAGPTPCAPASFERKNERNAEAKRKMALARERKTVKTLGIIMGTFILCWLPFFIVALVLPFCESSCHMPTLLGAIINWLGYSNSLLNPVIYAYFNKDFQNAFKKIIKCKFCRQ", "assay": "SAFETYScan GPCR cAMP, Agonist", "assay_type": "cell-based", "text": "as §1"}, "HTR1B": {"biological_target": "T3, HTR1B (Homo sapiens, UniProt P28222)", "T3 construct": "expressed in transfected cells", "T3 sequence (P28222 whole entry)": "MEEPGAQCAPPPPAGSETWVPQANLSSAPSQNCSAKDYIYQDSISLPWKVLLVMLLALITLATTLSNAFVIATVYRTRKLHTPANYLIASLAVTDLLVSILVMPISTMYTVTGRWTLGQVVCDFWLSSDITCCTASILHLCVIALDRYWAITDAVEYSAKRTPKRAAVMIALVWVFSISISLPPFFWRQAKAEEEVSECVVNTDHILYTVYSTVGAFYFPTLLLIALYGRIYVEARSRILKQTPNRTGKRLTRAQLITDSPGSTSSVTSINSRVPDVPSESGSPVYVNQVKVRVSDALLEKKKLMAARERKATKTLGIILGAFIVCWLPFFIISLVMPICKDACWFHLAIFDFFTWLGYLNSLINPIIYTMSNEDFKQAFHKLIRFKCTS", "assay": "SAFETYScan GPCR cAMP, Agonist", "assay_type": "cell-based", "text": "as §1"}, "DRD1 [3]": {"biological_target": "T4, DRD1 (Homo sapiens, UniProt P21728)", "T4 construct": "expressed in transfected cells", "T4 sequence (P21728 whole entry)": "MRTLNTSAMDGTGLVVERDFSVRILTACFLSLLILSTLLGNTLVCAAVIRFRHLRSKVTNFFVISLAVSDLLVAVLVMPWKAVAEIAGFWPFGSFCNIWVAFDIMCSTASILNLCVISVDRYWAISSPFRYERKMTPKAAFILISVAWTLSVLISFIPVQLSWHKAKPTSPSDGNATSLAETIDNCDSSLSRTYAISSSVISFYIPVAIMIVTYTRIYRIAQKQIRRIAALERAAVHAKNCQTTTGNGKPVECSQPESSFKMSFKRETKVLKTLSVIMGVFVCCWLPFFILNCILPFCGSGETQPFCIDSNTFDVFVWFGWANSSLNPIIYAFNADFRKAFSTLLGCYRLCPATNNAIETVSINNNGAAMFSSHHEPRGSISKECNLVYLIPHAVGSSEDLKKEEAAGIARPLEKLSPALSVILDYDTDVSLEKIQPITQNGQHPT", "assay": "SAFETYScan GPCR cAMP, Agonist", "assay_type": "cell-based", "text": "as §1"}, "CNR1": {"biological_target": "T5, CNR1 (Homo sapiens, UniProt P21554)", "T5 construct": "expressed in transfected cells", "assay": "SAFETYScan GPCR cAMP, Agonist", "assay_type": "cell-based", "text": "as §1"}, "OPRD1": {"biological_target": "OPRD1 (Homo sapiens, UniProt P41143)", "assay": "SAFETYScan GPCR cAMP, Antagonist", "assay_type": "cell-based", "text": "as §1"}, "CHRM2 [4]": {"biological_target": "T1, CHRM2", "assay": "SAFETYScan GPCR cAMP, Antagonist", "assay_type": "cell-based", "text": "as §1"}, "DRD1 [5]": {"biological_target": "T4, DRD1", "assay": "SAFETYScan GPCR cAMP, Antagonist", "assay_type": "cell-based", "text": "as §1"}, "nAChR(a4/b2)": {"biological_target": "nAChR(a4/b2) (Homo sapiens, UniProt P17787+P43681)", "assay": "SAFETYScan Ion Channel, Blocker", "assay_type": "cell-based", "text": "as §1"}, "HTR3A": {"biological_target": "T6, HTR3A (Homo sapiens, UniProt P46098)", "T6 sequence (P46098 24-478)": "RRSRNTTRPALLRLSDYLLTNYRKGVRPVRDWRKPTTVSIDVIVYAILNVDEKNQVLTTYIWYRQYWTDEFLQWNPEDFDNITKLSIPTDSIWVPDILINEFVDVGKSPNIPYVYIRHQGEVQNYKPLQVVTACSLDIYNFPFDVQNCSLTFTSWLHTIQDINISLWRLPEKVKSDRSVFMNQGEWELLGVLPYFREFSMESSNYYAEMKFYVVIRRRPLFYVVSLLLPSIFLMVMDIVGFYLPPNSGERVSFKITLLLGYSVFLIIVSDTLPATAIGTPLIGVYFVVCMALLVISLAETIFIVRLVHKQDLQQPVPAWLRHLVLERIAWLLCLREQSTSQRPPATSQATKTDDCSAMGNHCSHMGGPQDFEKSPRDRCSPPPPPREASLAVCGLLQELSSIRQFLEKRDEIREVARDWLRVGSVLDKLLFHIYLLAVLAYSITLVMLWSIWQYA", "assay": "SAFETYScan Ion Channel, Blocker", "assay_type": "cell-based", "text": "as §1"}, "CAV1.2": {"biological_target": "CAV1.2 (Homo sapiens, UniProt Q13936)", "sequence (Q13936 whole entry)": "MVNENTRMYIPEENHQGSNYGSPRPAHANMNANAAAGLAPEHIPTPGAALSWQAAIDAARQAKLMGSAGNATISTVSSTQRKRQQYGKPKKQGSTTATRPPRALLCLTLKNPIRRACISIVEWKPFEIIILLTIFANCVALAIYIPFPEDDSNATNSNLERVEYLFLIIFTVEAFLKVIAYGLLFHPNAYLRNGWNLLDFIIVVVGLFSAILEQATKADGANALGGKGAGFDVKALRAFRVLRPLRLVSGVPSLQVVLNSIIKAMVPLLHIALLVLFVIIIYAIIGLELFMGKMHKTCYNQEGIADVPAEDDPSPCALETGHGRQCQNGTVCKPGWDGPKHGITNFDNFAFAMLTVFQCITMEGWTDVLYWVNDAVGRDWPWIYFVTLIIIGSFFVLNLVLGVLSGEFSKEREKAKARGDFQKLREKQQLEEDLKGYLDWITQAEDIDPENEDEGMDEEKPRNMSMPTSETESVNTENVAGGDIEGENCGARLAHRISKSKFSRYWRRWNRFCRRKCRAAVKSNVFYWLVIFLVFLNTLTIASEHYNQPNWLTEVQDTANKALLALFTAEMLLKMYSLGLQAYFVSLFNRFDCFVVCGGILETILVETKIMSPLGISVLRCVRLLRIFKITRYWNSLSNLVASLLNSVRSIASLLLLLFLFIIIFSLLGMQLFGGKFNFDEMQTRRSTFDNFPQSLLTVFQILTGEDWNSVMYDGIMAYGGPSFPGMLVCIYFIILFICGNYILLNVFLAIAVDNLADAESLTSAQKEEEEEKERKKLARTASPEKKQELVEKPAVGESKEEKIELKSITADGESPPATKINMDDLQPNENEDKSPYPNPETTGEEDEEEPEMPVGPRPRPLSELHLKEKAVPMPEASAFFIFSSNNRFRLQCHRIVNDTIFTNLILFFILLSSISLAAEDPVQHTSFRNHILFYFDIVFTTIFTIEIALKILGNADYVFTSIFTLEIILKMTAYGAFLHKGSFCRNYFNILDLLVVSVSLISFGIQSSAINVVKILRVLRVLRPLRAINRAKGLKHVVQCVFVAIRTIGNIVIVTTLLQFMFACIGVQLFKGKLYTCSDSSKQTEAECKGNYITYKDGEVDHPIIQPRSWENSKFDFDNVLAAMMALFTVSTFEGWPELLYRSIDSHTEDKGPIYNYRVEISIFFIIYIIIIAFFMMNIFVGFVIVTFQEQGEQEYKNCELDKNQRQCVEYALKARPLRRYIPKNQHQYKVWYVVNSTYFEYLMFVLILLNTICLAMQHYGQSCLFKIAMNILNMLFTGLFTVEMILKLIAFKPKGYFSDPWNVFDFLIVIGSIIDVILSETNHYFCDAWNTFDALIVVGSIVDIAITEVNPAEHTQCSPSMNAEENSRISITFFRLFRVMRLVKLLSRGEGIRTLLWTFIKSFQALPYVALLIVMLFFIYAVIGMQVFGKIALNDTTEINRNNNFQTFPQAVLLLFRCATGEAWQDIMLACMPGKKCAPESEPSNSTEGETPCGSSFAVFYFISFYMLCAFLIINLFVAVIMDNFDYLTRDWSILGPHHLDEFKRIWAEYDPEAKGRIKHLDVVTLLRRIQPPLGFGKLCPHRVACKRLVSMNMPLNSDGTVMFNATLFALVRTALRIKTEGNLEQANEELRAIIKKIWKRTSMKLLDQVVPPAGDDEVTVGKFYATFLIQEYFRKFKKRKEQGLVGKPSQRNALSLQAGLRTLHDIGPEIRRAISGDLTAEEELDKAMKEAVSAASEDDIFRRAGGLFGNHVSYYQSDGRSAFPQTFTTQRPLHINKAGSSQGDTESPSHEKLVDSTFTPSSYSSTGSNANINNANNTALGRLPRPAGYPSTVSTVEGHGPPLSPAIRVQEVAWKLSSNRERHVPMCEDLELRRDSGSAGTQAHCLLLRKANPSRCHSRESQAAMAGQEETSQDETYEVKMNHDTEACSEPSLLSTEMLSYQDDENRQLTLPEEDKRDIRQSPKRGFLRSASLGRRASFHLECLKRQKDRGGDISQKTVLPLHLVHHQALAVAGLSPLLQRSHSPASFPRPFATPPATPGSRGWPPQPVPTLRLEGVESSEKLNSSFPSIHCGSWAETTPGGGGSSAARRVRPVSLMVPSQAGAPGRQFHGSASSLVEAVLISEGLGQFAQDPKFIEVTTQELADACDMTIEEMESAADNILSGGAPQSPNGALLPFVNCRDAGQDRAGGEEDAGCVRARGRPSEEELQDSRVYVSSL", "sequence (Q08289 whole entry partner)": "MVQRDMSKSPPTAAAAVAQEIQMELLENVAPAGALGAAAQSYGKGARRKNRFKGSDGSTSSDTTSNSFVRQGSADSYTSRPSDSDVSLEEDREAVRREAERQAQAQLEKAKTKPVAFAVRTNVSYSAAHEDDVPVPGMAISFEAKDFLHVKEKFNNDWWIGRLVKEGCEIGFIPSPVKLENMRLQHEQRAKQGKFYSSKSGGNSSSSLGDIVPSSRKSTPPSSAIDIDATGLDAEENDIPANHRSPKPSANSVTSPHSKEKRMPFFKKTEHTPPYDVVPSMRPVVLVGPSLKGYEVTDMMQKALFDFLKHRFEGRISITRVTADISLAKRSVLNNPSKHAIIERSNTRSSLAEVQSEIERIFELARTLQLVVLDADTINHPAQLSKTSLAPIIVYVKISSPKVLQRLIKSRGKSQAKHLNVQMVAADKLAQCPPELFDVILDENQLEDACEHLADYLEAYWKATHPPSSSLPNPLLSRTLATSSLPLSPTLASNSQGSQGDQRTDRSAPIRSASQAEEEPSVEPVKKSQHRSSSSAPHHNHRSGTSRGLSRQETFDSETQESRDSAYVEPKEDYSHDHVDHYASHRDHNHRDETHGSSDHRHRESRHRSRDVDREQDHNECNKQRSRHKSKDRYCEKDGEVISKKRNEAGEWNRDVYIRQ", "sequence (P54289 25-946 partner limits assumed)": "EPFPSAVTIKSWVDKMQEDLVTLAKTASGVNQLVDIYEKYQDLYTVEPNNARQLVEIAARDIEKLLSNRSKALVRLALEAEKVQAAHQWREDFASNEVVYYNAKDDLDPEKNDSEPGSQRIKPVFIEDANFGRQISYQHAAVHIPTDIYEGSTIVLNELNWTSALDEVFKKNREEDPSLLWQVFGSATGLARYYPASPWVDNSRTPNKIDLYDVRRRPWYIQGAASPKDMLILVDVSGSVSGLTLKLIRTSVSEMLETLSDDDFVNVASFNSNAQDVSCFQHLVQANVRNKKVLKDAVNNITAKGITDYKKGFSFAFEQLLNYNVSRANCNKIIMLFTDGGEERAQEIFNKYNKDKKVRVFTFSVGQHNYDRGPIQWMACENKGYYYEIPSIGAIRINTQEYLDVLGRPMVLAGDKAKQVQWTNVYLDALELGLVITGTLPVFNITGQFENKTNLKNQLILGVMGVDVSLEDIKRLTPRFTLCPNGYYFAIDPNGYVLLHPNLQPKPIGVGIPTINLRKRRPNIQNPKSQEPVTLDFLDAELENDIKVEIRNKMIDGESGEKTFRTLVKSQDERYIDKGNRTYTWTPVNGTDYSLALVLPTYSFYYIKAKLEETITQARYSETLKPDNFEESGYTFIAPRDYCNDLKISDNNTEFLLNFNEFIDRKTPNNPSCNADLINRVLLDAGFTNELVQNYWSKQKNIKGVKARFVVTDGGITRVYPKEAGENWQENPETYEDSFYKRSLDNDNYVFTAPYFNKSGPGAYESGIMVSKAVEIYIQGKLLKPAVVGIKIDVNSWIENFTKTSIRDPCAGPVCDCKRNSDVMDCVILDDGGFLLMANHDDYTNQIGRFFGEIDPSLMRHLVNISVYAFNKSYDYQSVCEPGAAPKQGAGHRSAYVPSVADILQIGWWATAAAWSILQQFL", "sequence (P54289 947-1103 partner limits assumed)": "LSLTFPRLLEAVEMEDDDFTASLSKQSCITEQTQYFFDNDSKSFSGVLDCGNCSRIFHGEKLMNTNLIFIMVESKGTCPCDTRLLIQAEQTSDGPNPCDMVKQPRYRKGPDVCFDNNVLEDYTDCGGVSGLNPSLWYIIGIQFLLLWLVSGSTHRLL", "assay": "SAFETYScan Ion Channel, Blocker", "assay_type": "cell-based", "text": "as §1"}, "NAV1.5": {"biological_target": "NAV1.5 (Homo sapiens, UniProt Q14524)", "assay": "SAFETYScan Ion Channel, Blocker", "assay_type": "cell-based", "text": "as §1"}, "NMDAR (1A/2B)": {"biological_target": "NMDAR (1A/2B) (Homo sapiens, UniProt Q05586+Q13224)", "assay": "SAFETYScan Ion Channel, Blocker", "assay_type": "cell-based", "text": "as §1"}, "GABAA": {"biological_target": "GABAA (Homo sapiens, UniProt P14867+P18507+P47870)", "assay": "SAFETYScan Ion Channel, Blocker", "assay_type": "cell-based", "settings": "read-out: Max Response", "text": "as §1"}, "hERG": {"biological_target": "hERG (Homo sapiens, UniProt Q12809)", "assay": "SAFETYScan Ion Channel, Blocker", "assay_type": "cell-based", "text": "as §1"}, "KvLQT1/minK": {"biological_target": "KvLQT1/minK (Homo sapiens, UniProt P51787)", "assay": "SAFETYScan Ion Channel, Blocker", "assay_type": "cell-based", "text": "as §1"}},
  "data": [
    {"smiles": "C[C@H]1C[C@@H](O)CN(c2ncc(Cl)c(Nc3ccc4c(c3)c3c(c(=O)n4C)OCC(F)(F)[C@H](C4CC4)N3)n2)C1", "note": "[12a CCT373566, (S)-10-((5-Chloro-2-((3R,5S)-3-hydroxy-5-methylpiperidin-1-yl)pyrimidin-4-yl)amino)-2-cyclopropyl-3,3-difluoro-7-methyl-1,2,3,4-tetrahydro-[1,4]oxazepino[2,3-c]quinolin-6(7H)-one]", "values": [
      {"measurement": "exposure versus dose", "setting": "[1]", "result": "exposure increased with the dose"},
      {"measurement": "OCI-Ly3 GI50", "setting": "OCI-Ly3; 14-day proliferation assay, BCL6 low-expressing cell line", "result": "not seen"},
      {"measurement": "GI50", "setting": "OCI-Ly3; Homo sapiens, OCI-Ly3, 336 h, read-out: OCI-Ly3 GI50", "result": 1900, "unit": "nM"},
      {"measurement": "Emax", "setting": "CHRM2 [2]; read-out: Max Response", "result": 15, "unit": "%"},
      {"measurement": "EC50", "setting": "CHRM2 [2]; read-out: RC50 (EC50)", "result": "> 10", "unit": "µM"},
      {"measurement": "Emax", "setting": "HTR1A; read-out: Max Response", "result": 12.5, "unit": "%"},
      {"measurement": "EC50", "setting": "HTR1A; read-out: RC50 (EC50)", "result": "> 10", "unit": "µM"},
      {"measurement": "Emax", "setting": "HTR1B; read-out: Max Response", "result": 21.5, "unit": "%"},
      {"measurement": "EC50", "setting": "HTR1B; read-out: RC50 (EC50)", "result": "> 10", "unit": "µM"},
      {"measurement": "Emax", "setting": "DRD1 [3]; read-out: Max Response", "result": 0, "unit": "%"},
      {"measurement": "EC50", "setting": "DRD1 [3]; read-out: RC50 (EC50)", "result": "> 10", "unit": "µM"},
      {"measurement": "Emax", "setting": "CNR1; read-out: Max Response", "result": 18.9, "unit": "%"},
      {"measurement": "EC50", "setting": "CNR1; read-out: RC50 (EC50)", "result": "> 10", "unit": "µM"},
      {"measurement": "Emax", "setting": "OPRD1; read-out: Max Response", "result": 0, "unit": "%"},
      {"measurement": "IC50", "setting": "OPRD1; read-out: RC50 (IC50)", "result": "> 10", "unit": "µM"},
      {"measurement": "Emax", "setting": "CHRM2 [4]; read-out: Max Response", "result": 30.1, "unit": "%"},
      {"measurement": "IC50", "setting": "CHRM2 [4]; read-out: RC50 (IC50)", "result": "> 10", "unit": "µM"},
      {"measurement": "Emax", "setting": "DRD1 [5]; read-out: Max Response", "result": 51.9, "unit": "%"},
      {"measurement": "IC50", "setting": "DRD1 [5]; read-out: RC50 (IC50)", "result": 4.89, "unit": "µM"},
      {"measurement": "Emax", "setting": "nAChR(a4/b2); read-out: Max Response", "result": 7.49, "unit": "%"},
      {"measurement": "IC50", "setting": "nAChR(a4/b2); read-out: RC50 (IC50)", "result": "> 10", "unit": "µM"},
      {"measurement": "Emax", "setting": "HTR3A; read-out: Max Response", "result": 15, "unit": "%"},
      {"measurement": "IC50", "setting": "HTR3A; read-out: RC50 (IC50)", "result": "> 10", "unit": "µM"},
      {"measurement": "Emax", "setting": "CAV1.2; read-out: Max Response", "result": 0, "unit": "%"},
      {"measurement": "IC50", "setting": "CAV1.2; read-out: RC50 (IC50)", "result": "> 10", "unit": "µM"},
      {"measurement": "Emax", "setting": "NAV1.5; read-out: Max Response", "result": 1.35, "unit": "%"},
      {"measurement": "IC50", "setting": "NAV1.5; read-out: RC50 (IC50)", "result": "> 10", "unit": "µM"},
      {"measurement": "Emax", "setting": "NMDAR (1A/2B); read-out: Max Response", "result": 0, "unit": "%"},
      {"measurement": "IC50", "setting": "NMDAR (1A/2B); read-out: RC50 (IC50)", "result": "> 10", "unit": "µM"},
      {"measurement": "Emax", "setting": "GABAA", "result": 1.51, "unit": "%"},
      {"measurement": "Emax", "setting": "hERG; human, read-out: Max Response", "result": 93, "unit": "%"},
      {"measurement": "IC50", "setting": "hERG; read-out: RC50 (IC50)", "result": 1440, "unit": "nM"},
      {"measurement": "Emax", "setting": "KvLQT1/minK; read-out: Max Response", "result": 13.1, "unit": "%"},
      {"measurement": "IC50", "setting": "KvLQT1/minK; read-out: RC50 (IC50)", "result": "> 10", "unit": "µM"}
    ]}
  ]
}
